Earlier results in article PMC10147685, “Safety, tolerability, and pharmacokinetics of Aurora kinase B inhibitor AZD2811: a phase 1 dose-finding study in patients with advanced solid tumours” (British Journal of Cancer, 2023).

Columns and labels:
advanced solid tumours = test system: advanced solid tumours; set-up: method as in PMID 22661287; details: cited from earlier work
[1] = test system: patients with advanced solid tumours; set-up: method as in PMID 27349901; details: cited from earlier work

SMILES	Objective responses (advanced solid tumours)	Patients with SD (advanced solid tumours)	Objective responses [1]	Patients with SD ([1]; depending on the treatment schedule)
CCN(CCCOc1ccc2c(Nc3cc(CC(=O)Nc4cccc(F)c4)n[nH]3)ncnc2c1)CCOP(=O)(O)O [barasertib]	no objective responses	23%		
CC(C)NC(=O)[C@H]1CCC[C@H]1Nc1nc(Nc2ccc(C(=O)N(C)C3CCN(C)CC3)cc2)ncc1C(F)(F)F [BI 811283]			no objective responses	30–33%
